The values below are quoted from earlier work in patent US6514941B1, “Method of preparing a casein hydrolysate enriched in anti-hypertensive peptides” (Campina Melkunie B.V., priority 1999, dated 2003).

Molecules are shown by their SMILES.

The series relates to SHRSP. The settings on record: dose that is not hypotensive.

For the compound `C[C@H](CS)C(=O)N1CCC[C@H]1C(=O)O` [captopril], the onset of stroke entry is “inhibits the onset of stroke”.
